Results on 2 compounds are retold here after publication PMC5856786, “A DHODH inhibitor increases p53 synthesis and enhances tumor cell killing by p53 degradation blockage” (Nature Communications, 2018).

For one data set, the target named is recombinant human DHODH (Homo sapiens, UniProt Q02127). The data set can be described thus: Kinetic DHODH enzyme assay (3,4-dimethoxy-5-methyl-p-benzoquinone, DCIP). The class given is biochemical. Also noted: made in house. The conditions noted are these: Fig. 5a; average of three independent repeats ± SD. The protocol:
In Fig. 5a enzyme assays were optimized and performed with 6 nM recombinant human DHODH prepared as described. The reaction mixture for these kinetic assays consisted of 1 mM DL-dihydroorotic acid, 100 µM 3,4-dimethoxy-5-methyl-p-benzoquinone (#D9150, Sigma-Aldrich), and 100 µM DCIP in enzyme buffer. A stock solution of 20 mM DCIP was prepared in enzyme buffer and filtered through filter paper (20–25 μm pore size) just before use. Loss in absorbance by DCIP was measured at 595 nm at RT in a stepped time course (8 × 2 min, 8 × 3 min, 6 × 5 min). […] Therefore, for each concentration of inhibitor tested, a value for DHODH’s Vmax was estimated by linear regression within this time frame.

Data set [1] deals with H1299 p53-null xenograft tumors. Description: H1299 p53-null xenograft. The data set is classed as in vivo, mice. From the text: Error bars illustrate ± SEM with significance determined by Multiple Student’s t-tests. […] See supplementary information for detailed description of protocol. d) Pharmacokinetic study examining the effect of co-administration of nutlin-3a and (R)-HZ05 on the plasma concentration of nutlin-3a over time. See supplementary information for detailed description of protocol. e) In vivo activity of (R)- HZ05 alone and in combination with nutlin-3 on H1299 p53-null xenograft tumors (n ≥ 6). […] In the tumor volume graph, (**) on day 4 indicates a statistical difference of Control to HZ05 and to nutlin-3a; (*) on day 7 indicates a difference between Control and nutlin-3a; and (**) on day 12 indicates a statistical difference between Control, […] 19

The nature of data set [2]: In vivo pharmacokinetic parameters of (R)-HZ05. Further details: species or system C57B1/6N mice. To be noted: for AUC(0-inf) / Cmax / Tmax / AUC / half-life / BA (%): mice; for AUC: read-out: AUC 0-h; for half-life: read-out: t (h) (half-life) (converted). The protocol: Waters Acquity UPLC (Waters Corp.) was used for all LC/MS and LC/MS/MS experiments. For chromatographic separation a general gradient was used (5 % mobile phase B to 90 % over 2 min total run) on a C18 BEH 1.7 µm column 2 × 50 mm (Waters Corp.). Mobile phase A consisted of 5 % acetonitrile 0.1 % formic acid and mobile phase B 100 % acetonitrile 0.1 % formic acid. The flow rate was 0.5 mL min-1 and 3 µL of the sample was injected. A standard curve between 3−1000 nM was prepared for each compound. […]
In vivo Pharmacokinetic Parameter Determination
(R)-HZ05 was formulated for subcutaneous and oral administration at 5 mg mL-1 in 20 % hydroxypropyl-β-cyclodextrin in PBS and formulated at 5 mg mL-1 diluted in physiological NaCl. […]
Blood was collected […]
in EDTA tubes from three mice per time point and stored on ice with plasma separated within 30 min by centrifugation at 2000 g and stored at –80 ° C until analysis at 0.08, 0.25, 0.5, 1, 2, 3, 4, 6 and 24 h post administration. […] internal standard (9 nM warfarin) was added to each plasma sample and each sample was shaken at RT for 10 min followed by centrifugation at 2000 g for 30 min at 4 °C. […] of sample was injected into an Acquity UPLC coupled to a triple quadrupole mass spectrometer (Waters) operated in MRM mode with positive electrospray ionization. MRM transition 381.09 > […]
CV and 40 V for CE) as a qualifier ion. Transition for internal standard was 309.16 > 163.005 (22 V for CV and 14 V for CE). Ion source conditions were: capillary voltage, 2000 V; desolvation temperature, 500 °C; desol vation gas flow rate, 1000 L h-1. Separation was conducted using a BEH C18 column (2.1 × 50 mm, 1.7 µm, Waters) using a linear gradient: 0 – 0.5 min, 5 % B; […], 100 % B, 1.61–2.00 min, 5 % B. Mobile phase A was 5 % acetonitrile with 0.1 % formic acid and B […]
All animal experimentation was carried out by Sweden
Contract In vivo Design AB in compliance with 2010/63/EU directive and approved by Stockholms Norra Djurförsöksetiska Nämnd (laboratory animal eth ical committee Stockholm) with the approval number N61/15. Any single plasma concentration value deviated by >10 times from the other two values was excluded from the pharmacokinetic evaluation, but was included in the figure. […]

Data set [3] in a line: Pharmacokinetic study, nutlin-3 single or co-administered with (R)-HZ00. The class given is in vivo, NOD-SCID mice. To be noted: mice; nutlin-3 100 mg kg-1 oral + (R)-HZ00 150 mg kg-1 i.p. The protocol: Waters Acquity UPLC (Waters Corp.) was used for all LC/MS and LC/MS/MS experiments. For chromatographic separation a general gradient was used (5 % mobile phase B to 90 % over 2 min total run) on a C18 BEH 1.7 µm column 2 × 50 mm (Waters Corp.). Mobile phase A consisted of 5 % acetonitrile 0.1 % formic acid and mobile phase B 100 % acetonitrile 0.1 % formic acid. The flow rate was 0.5 mL min-1 and 3 µL of the sample was injected. A standard curve between 3−1000 nM was prepared for each compound.
Cocrystallization, data collection and structure determination of DHODH with inhibitor HZ05 Co-crystals were prepared similar to previously described6. In short 18 mg mL-1 DHODH (dissolved in 10 mM N,N-dimethylundecylamine N-oxide (C11DAO) (Fluka), 400 mM NaCl, 1 mM EDTA, 100 mM HEPES (pH 7), and 30 % glycerol) was mixed in a 1:1 ratio with 2 M NH4SO4, 0.1 M Na Acetate pH 4.8, 30 mM N,N-dimethyldodecylamine N-oxide (DDAO), 15 mM C11DAO, 2 mM L-dihydroorotic acid, 1 mM HZ05 and 6 % DMSO. The crystals did grow from hanging drops at 20°C in a VDX plate; 2.5 µL protein solution mixed with 2.5 µL reservoir (30 % (v/v) glycerol, 0.1 M Na acetate pH 4.8 and 2 M NH4SO4). A crystal was flashfrozen in liquid nitrogen and data was collected to 1.7 Å at Diamond Light Source beamline i02. The structure was determined using Molecular Replacement and refined in Refmac57. […]

The test system of a further data set is ARN8 xenograft. Description: ARN8 subcutaneous xenograft. The data set is classed as in vivo. To be noted: mice; (R)-HZ00 150 mg kg−1 i.p. q.d.; nutlin-3 100 mg kg−1 p.o. q.d. How it is done:
All animal xenograft experiments were approved by the Norwegian Animal Research Authority and conducted according to The European Convention for the Protection of Vertebrates Used for Scientific Purposes. […] The health status and weight of the mice were monitored daily and they were randomized in a non-blinded manner into 4 groups when tumor volumes reached 30–40 mm^3. […] Tumor volumes were measured every second day by a digital caliper using the following ellipsoid formula: Volume = π (length × width × height)/6.
To determine the efficacy of (R)-HZ05 in combination with nutlin-3a, 4 groups of NSG mice (n = 8 per group) were subcutaneously injected in the flank region with a single 100 μL injection of 2 × 10^6 ARN8 cells in a solution of PBS:Matrigel (volume ratio 3:1). Treatment was initiated when tumors reached ~50 mm^3. The maximum tolerated dose for this combination of drugs was previously determined for the strain we used. The endpoint of the experiment was determined by the tumor size ([…]) weight loss, and general condition of the mice according to The Norwegian Animal Research Authority.

Setting [4] is: female, C57B1/6N, mouse, plasma, iv, i.v, dose 5 mg kg-1.
Where [5] appears, read: female, C57B1/6N, mouse, plasma, po, p.o, dose 50 mg kg-1.
[6] abbreviates: female, C57B1/6N, mouse, plasma, sc, s.c, dose 50 mg kg-1.

Read-outs that look alike come from different tables or passages of the source. Some results are limits rather than exact numbers.

Chain of recombinant human DHODH (Q02127 29-395 limits assumed): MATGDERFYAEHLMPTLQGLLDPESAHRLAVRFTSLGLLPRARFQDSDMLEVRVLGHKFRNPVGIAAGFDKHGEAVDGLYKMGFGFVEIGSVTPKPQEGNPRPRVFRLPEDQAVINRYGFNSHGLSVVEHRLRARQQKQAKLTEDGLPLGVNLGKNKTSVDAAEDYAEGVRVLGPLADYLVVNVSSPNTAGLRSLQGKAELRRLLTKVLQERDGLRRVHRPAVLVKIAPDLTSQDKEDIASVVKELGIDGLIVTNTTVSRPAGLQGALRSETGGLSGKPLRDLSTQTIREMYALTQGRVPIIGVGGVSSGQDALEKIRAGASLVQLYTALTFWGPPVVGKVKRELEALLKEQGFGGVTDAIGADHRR

The IC50 is the point on the concentration scale where inhibition reaches its midpoint. By clearance is commonly meant the rate of elimination divided by the concentration. By AUC(0-inf) is commonly meant total exposure, with the tail of the curve extrapolated. Lower therefore signals low exposure. One may read the Cmax as the peak of the concentration-time curve. In general, Tmax refers to the time at which the peak concentration occurs. The term AUC denotes the area under the concentration-time curve, a measure of exposure. A word on the half-life: it is the time in which the quantity being followed falls by half. Consider `O=C(N[C@@H]1CCCc2c1cnn2-c1ccccc1F)c1onc2c1CCCC2` [(R)-HZ05], for which the half-inhibitory concentration (IC50) on recombinant human DHODH worked out at 0.011 ± 0.00094 µM. Moreover, the “synergy with nutlin-3a in p53-null xenograft” value in data set [1] is listed as “no synergy”. The clearance in data set [2] (female, C57B1/6N, mouse, plasma, iv, 5 mg kg-1, mice, i.v) is 90 mL/min/kg. The Vd in data set [2] (female, C57B1/6N, mouse, plasma, iv, 5 mg kg-1, mice, i.v, read-out: Vd) turned out to be 8.3 L/kg; in data set [2] (female, C57B1/6N, mouse, plasma, iv, 5 mg kg-1, mice, i.v, read-out: Vss), 3.6 L/kg. Moreover, the figures for the AUC(0-inf) in data set [2] (setting [4]), in data set [2] (setting [5]) and in data set [2] (setting [6]) were 2.4 µM·h, 9.9 µM·h and 30 µM·h, respectively. Also, the Cmax in data set [2] (setting [4]) is 6.1 µM; in data set [2] (setting [5]) it was 7.5 µM; in data set [2] (setting [6]), 14.9 µM. The time to peak (Tmax) in data set [2] (setting [4]) worked out at 4.8 min; in data set [2] (setting [5]) it was 15 min; in data set [2] (setting [6]), 30 min. The figures for the AUC in data set [2] (setting [4]), in data set [2] (setting [5]) and in data set [2] (setting [6]) were 2.4 µM·h, 9.9 µM·h and 30 µM·h, respectively. In addition, the half-life was 1.1 h in data set [2] (setting [4]), 2.9 h in data set [2] (setting [5]) and 2.5 h in data set [2] (setting [6]). The “BA (%)” value in data set [2] (p.o, dose 50 mg kg-1) is 41%; in data set [2] (s.c, dose 50 mg kg-1) it was above 100%.

With `COc1ccc(C2=N[C@@H](c3ccc(Cl)cc3)[C@@H](c3ccc(Cl)cc3)N2C(=O)N2CCNC(=O)C2)c(OC(C)C)c1` [nutlin-3, reference compound], the “half-life on co-administration with (R)-HZ00” value in data set [3] is recorded as “not prolonged”. Besides, in the data set with ARN8 xenograft, the “toxicity in xenograft study” value was “treatments had to be discontinued after 9 days due to the toxicity”.
